Where two headings read alike, the source gives them in different places. Where no end group is shown, it is not given here.

Data on six substances can be found in US11147853B2, “Polypeptide binding to a plurality of amyloid monomers and aggregates, and use thereof” (Hangzhou Wisdom Panacea Biologics Co., Ltd., priority 2015, dated 2021).

Data set [1] deals with Aβ42 oligomers (Homo sapiens, UniProt P05067). Put plainly: ELISA binding of histidine-tagged ZR derivatives to Aβ42 oligomers.
For data set [2], the system named is SH-SY5Y cells. As to conditions: for cell activity (MTT, relative to PBS control): insulin 60 μM, 48 hours, insulin alone 77%.
Protocol: (§1) SH-SY5Y cells were prepared into a single cell suspension with a medium (DMEM) containing 10% fetal bovine serum and then inoculated into a 96-well cell culture plate at 10000 cells per well and with a volume of 100 μL per well. The cells were incubated at 37° C., 5% of CO2 concentration for 24 hours in an incubator.
Insulin: the final concentration of insulin was 60 μM; a mixture of insulin and ZR (insulin:ZR=1:1): the final concentration of insulin protein was 60 μM and the final concentration of ZR was 60 μM; a mixture of insulin and ZR (insulin: ZR=1:5): the final concentration of insulin protein was 60 μM and the final concentration of ZR was 300 μM; PBS was used as control;
(§2) Cells were further cultured for 48 hours, then 10 μL of MTT solution was added into each well and incubated at 37° C. for 3 hours. Then the incubation was stopped by adding 100 μL dissolve solution (10% SDS and 5% iso-butanol dissolved in 0.01 M HCL) to each well, and incubated at 37° C. overnight to fully dissolve the MTT crystals. The absorbance of each well was measured on a multifunctional ELISA reader at a wavelength of 570 nm. After subtracting the background, the absorbance of the sample was divided by the absorbance of PBS control to act as an indicator of the cell activity, and the significant differences were analyzed.
The test system of data set [3] is SH-SY5Y cells. Particulars: for cell activity (MTT, relative to PBS control): amylin 4 μM, 48 hours, amylin alone 61%.
Protocol: as §1
Amylin: the final concentration of amylin was 4 μM; a mixture of Amylin and ZR (Amylin:ZR=1:1): the final concentration of Amylin protein was 4 μM and the final concentration of ZR was 4 μM; a mixture of Amylin and ZR (Amylin: ZR=1:10): the final concentration of Amylin protein was 4 μM and the final concentration of ZR was 40 μM;
as §2
The subject of data set [4] is SH-SY5Y cells. As to conditions: for cell activity (MTT, relative to PBS control): Aβ42 4 μM, 48 hours, Aβ42 alone 71%.
Protocol: as §1
Aβ42: the final concentration of Aβ42 was 4 μM; a mixture of Aβ42 and ZR (Aβ:ZR=1:0.5): the final concentration of Aβ42 protein was 4 μM and the final concentration of ZR was 2 μM; a mixture of Aβ42 and ZR (Aβ: ZR=1:1): the final concentration of Aβ42 protein was 4 μM and the final concentration of ZR was 4 μM;
as §2
For data set [5], the system named is SH-SY5Y cells. As to conditions: for cell activity (MTT, relative to PBS control): lysozyme 20 μM, 48 hours, lysozyme alone 55%.
Protocol: as §1
Lysozyme: the final concentration of lysozyme was 20 μM; a mixture of lysozyme and ZR (lysozyme:ZR=1:1): the final concentration of lysozyme protein was 20 μM and the final concentration of ZR was 20 μM; a mixture of lysozyme and ZR (lysozyme: ZR=1:10): the final concentration of lysozyme protein was 20 μM and the final concentration of ZR was 200 μM;
as §2

Chain of Aβ42 oligomers (P05067 672-713 limits assumed): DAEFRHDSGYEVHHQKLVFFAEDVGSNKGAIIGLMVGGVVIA

Consider AFFNNKR [sequence 7], for which the “OD450 of binding to Aβ42 oligomers” value in data set [1] was found to be 0.22.

With SFANNKR [sequence 9], the “OD450 of binding to Aβ42 oligomers” value in data set [1] is 0.15.

On to SFFNAKR [sequence 11], for which the “OD450 of binding to Aβ42 oligomers” value in data set [1] came out at 0.18.

Regarding SFFNNAR [sequence 12], in data set [1], the “OD450 of binding to Aβ42 oligomers” value amounted to 0.14.

For the substance SFFNNKA [sequence 13], the “OD450 of binding to Aβ42 oligomers” value in data set [1] was found to be 0.14.

With “SFFNNKR [ZR, Ser-Phe-Phe-Asn-Asn-Lys-Arg]”, the “cell activity (MTT, relative to PBS control)” value is on record as 92% in data set [2] (ZR 60 μM (insulin:ZR=1:1)); 102% in data set [2] (ZR 300 μM (insulin:ZR=1:5)); 70% in data set [3] (ZR 4 μM (Amylin:ZR=1:1)); 75% in data set [3] (ZR 40 μM (Amylin:ZR=1:10)); 80% in data set [4] (ZR 2 μM (Aβ:ZR=1:0.5)); 82% in data set [4] (ZR 4 μM (Aβ:ZR=1:1)). Also, the results for the “cell activity (MTT, relative to PBS control)” value in data set [5] (ZR 20 μM (lysozyme:ZR=1:1)) and in data set [5] (ZR 200 μM (lysozyme:ZR=1:10)) were 85% and 93%, respectively. In addition, the “inhibition of cytotoxicity induced by insulin” value in data set [2] (molar ratio 1:5) is listed as 89.8%. The “inhibition of cytotoxicity induced by amylin” value in data set [3] (molar ratio 1:10) worked out at 45.4%. For the same substance, the “inhibition of cytotoxicity induced by Aβ42” value in data set [4] (molar ratio 1:1) was found to be 37.8%. The “inhibition of cytotoxicity induced by lysozyme” value in data set [5] (molar ratio 1:10) was determined as 117.6%.
